Assay results as given in patent US4683227A, “Antibiotic derivatives of 7β-[2-(thiazol-4-yl)acetamide]-3-chloro-3-cephem-4-carboxylic acids and compositions and method of use thereof” (Eli Lilly and Company, priority 1985, dated 1987).
Values after ≈ are worked out from the molar mass of the structure shown. Where two headings read alike, the source gives them in different places.

Key:
[1] = Oral bioavailability in dogs; format: in vivo; conditions: female mongrel dogs
Escherichia coli EC14 = test: Minimum inhibitory concentration, standard agar dilution method; format: cell-based
From the text: (§1) The method of this invention is useful in treating infections caused by a variety of microorganisms pathogenic to man and animals. […] The concentrations were obtained by the standard agar dilution method.

Escherichia coli N10 = test: as above; format: cell-based
From the text: as §1

Escherichia coli TEM = test: as above; format: cell-based
From the text: as §1

[2] = system: Haemophilus influenzae 76; test: as above; format: cell-based
From the text: as §1

[3] = system: Haemophilus influenzae C.L.; test: as above; format: cell-based
From the text: as §1

[4] = system: Klebsiella pneumoniae KAE; test: as above; format: cell-based; conditions: for MIC: read-out: Minimum Inhibitory Concentration
From the text: as §1

[5] = system: Klebsiella pneumoniae X26; test: as above; format: cell-based
From the text: as §1

[6] = system: Klebsiella pneumoniae X68; test: as above; format: cell-based
From the text: as §1

[7] = system: Staphylococcus aureus S13E; test: as above; format: cell-based; conditions: for Minimum Inhibitory Concentration: Staphylococcus aureus S13E, agar dilution; for MIC: Staphylococcus aureus, S13E, read-out: Minimum Inhibitory Concentration
From the text: as §1

[8] = system: Staphylococcus aureus V41; test: as above; format: cell-based
From the text: as §1

[9] = system: Staphylococcus aureus X1.1; test: as above; format: cell-based
From the text: as §1

[10] = system: Staphylococcus aureus X400; test: as above; format: cell-based
From the text: as §1

[11] = system: Staphylococcus epidermidis 222; test: as above; format: cell-based
From the text: as §1

[12] = system: Staphylococcus epidermidis Epil; test: as above; format: cell-based
From the text: as §1

[13] = system: Streptococcus pneumoniae PARK I; test: as above; format: cell-based
From the text: as §1

[14] = system: Streptococcus pyogenes C203; test: as above; format: cell-based
From the text: as §1

[15] = system: Streptococcus sp. group D 2041; test: as above; format: cell-based; conditions: for MIC: read-out: Minimum Inhibitory Concentration
From the text: as §1

[16] = system: Streptococcus sp. group D X66; test: as above; format: cell-based; conditions: for MIC: read-out: Minimum Inhibitory Concentration
From the text: as §1

[17] = Peroral bioavailability in mice (oral vs subcutaneous dosage); format: in vivo, mice (Cox Male Standard Mice, Lai:COX (Standard) BR); conditions: 20 mg/kg; for Oral Bioavailability % BA (AUC): area under plasma curves after oral vs subcutaneous dosage; for Oral Bioavailability % BA (URINE): urinary excretion after oral vs subcutaneous dosage
From the text: Cox Male Standard Mice, Lai:COX (Standard) BR were housed overnight in a wire-bottom cage with free access to water and liquid diet. The result was a gastro-intestinal tract free of solids, yet without the nutritional shock and coprophagy that often accompanies overnight starvation of rodents. After dosing, the mice were housed individually in ventilated wide-mouth jars containing a layer of buffer beneath an elevated wire screen floor. At intervals after dosing, mice were removed from the jars and heparinized blood, stomach, and small intestine were removed from the animals. The urinary bladder was removed and combined with the urine collected in the buffer in the bottom of the jars. Urine, washings from the stomach and small intestine, and plasma prepared from blood samples were assayed for antibiotic activity. The test procedure used is a modification of the test procedure described by W. E. Wright, et al., J. Antibiotics, 32:1155 (1979).
Dose solutions were prepared in saline at 2 mg/ml for subcutaneous or oral administration. In all cases the compounds were administered to the mice at 20 mg/kg on an equal weight basis.
The biological activity of the samples was determined by a conventional agar well procedure using Bacillus subtilis ATCC 6633 as the test organism.
Peroral bioavailability (BA) of the test compounds in mice can be determined either by comparison of the area under the plasma curves (AUC) after oral or subcutaneous dosage, or by comparison of the urinary excretion of the dose after oral and subcutaneous dosage. Calculations of BA by either method are made with the following formulae: [formula]

[18] = in vivo, po; cited from earlier work
[19] = Klebsiella pneumoniae KAE, agar dilution
[20] = Staphylococcus aureus V41, agar dilution
[21] = Staphylococcus aureus X400, agar dilution
[22] = Streptococcus sp. group D 2041, agar dilution
[23] = Streptococcus sp. group D X66, agar dilution
[24] = Staphylococcus aureus V41, agar dilution, read-out: Minimum Inhibitory Concentration
[25] = Staphylococcus aureus X400, agar dilution, read-out: Minimum Inhibitory Concentration

Structure (SMILES) | Minimum Inhibitory Concentration (Escherichia coli EC14) [µg/mL] | Minimum Inhibitory Concentration (Escherichia coli N10) [µg/mL] | Minimum Inhibitory Concentration (Escherichia coli TEM) [µg/mL] | Minimum Inhibitory Concentration [2] [µg/mL] | Minimum Inhibitory Concentration [3] [µg/mL] | Minimum Inhibitory Concentration [4, 19] [µg/mL] | Minimum Inhibitory Concentration [5] [µg/mL] | MIC (Escherichia coli EC14) [µg/mL] | MIC (Escherichia coli N10) [µg/mL] | MIC (Escherichia coli TEM) [µg/mL] | MIC [2] [µg/mL] | MIC [3] [µg/mL] | MIC [5] [µg/mL] | MIC [6] [µg/mL] | MIC [7] [µg/mL] | MIC [9] [µg/mL] | MIC [11] [µg/mL] | MIC [12] [µg/mL] | MIC [13] [µg/mL] | MIC [14] [µg/mL] | further results
CC1(C)S[C@@H]2[C@H](NC(=O)COc3ccccc3)C(=O)N2[C@H]1C(=O)O [Penicillin V] |  |  |  |  |  |  |  |  |  |  |  |  |  |  |  |  |  |  |  |  | bioavailability ([1]; dog, urine recovery with time following intravenous and oral administration, read-out: bioavailability (percent of dose recovered in the urine)): 21%; oral bioavailability (area under the curves) ([1]; serum antibacterial levels with time following intravenous and oral administration): 11%
N#Cc1ncn(CC(=O)N[C@@H]2C(=O)N3C(C(=O)O)=C(Cl)CS[C@H]23)n1 [Compound 7] | 32 | 64 | 64 | 2 | 2 | > 128 | 32 |  |  |  |  |  |  |  |  |  |  |  |  |  | Minimum Inhibitory Concentration [6]: 64 µg/mL; Minimum Inhibitory Concentration [7]: 128 µg/mL; Minimum Inhibitory Concentration [8, 20]: 128 µg/mL; Minimum Inhibitory Concentration [9]: 2 µg/mL; Minimum Inhibitory Concentration [10, 21]: > 128 µg/mL; Minimum Inhibitory Concentration [11]: 4 µg/mL; Minimum Inhibitory Concentration [12]: 8 µg/mL; Minimum Inhibitory Concentration [13]: 0.5 µg/mL; Minimum Inhibitory Concentration [14]: 0.25 µg/mL; Minimum Inhibitory Concentration [15, 22]: 64 µg/mL; Minimum Inhibitory Concentration [16, 23]: 128 µg/mL
Nc1nc(CC(=O)N[C@@H]2C(=O)N3C(C(=O)O)=C(Cl)CS[C@H]23)cs1 [Compound 2, 7β-[2-(2-Aminothiazol-4-yl)acetamido]-3-chloro-3-cephem-4-carboxylic acid] |  |  |  |  |  |  |  | 1 (≈ 2.67 µM) | 4 (≈ 10.7 µM) | 2 (≈ 5.34 µM) | 0.5 (≈ 1.33 µM) | 0.5 (≈ 1.33 µM) | 0.25 (≈ 0.667 µM) | 0.5 (≈ 1.33 µM) | 32 (≈ 85.4 µM) | 1 (≈ 2.67 µM) | 1 (≈ 2.67 µM) | 4 (≈ 10.7 µM) | 0.5 (≈ 1.33 µM) | 0.06 (≈ 0.16 µM) | Oral Bioavailability % BA (AUC) [17]: 62%; Oral Bioavailability % BA (URINE) [17]: 64%; bioavailability ([1]; oral, calculated with the above-described formulae): 28%; MIC [4, 19]: 16 µg/mL (≈ 42.7 µM); MIC [8, 24]: 32 µg/mL (≈ 85.4 µM); MIC [10, 25]: > 128 µg/mL; MIC [15, 22]: 32 µg/mL (≈ 85.4 µM); MIC [16, 23]: > 128 µg/mL
O=C(Cc1csc(-c2ccccc2)n1)N[C@@H]1C(=O)N2C(C(=O)O)=C(Cl)CS[C@H]12 [Compound 5, 7β-[2-(2-Phenylthiazol-4-yl)acetamido]-3-chloro-3-cephem-4-carboxylic acid] |  |  |  |  |  |  |  | > 128 | > 128 | > 128 | 0.5 (≈ 1.15 µM) | 4 (≈ 9.18 µM) | 8 (≈ 18.4 µM) | > 128 | 16 (≈ 36.7 µM) | 0.25 (≈ 0.574 µM) | 0.5 (≈ 1.15 µM) | 4 (≈ 9.18 µM) | 0.125 (≈ 0.287 µM) | 0.06 (≈ 0.138 µM) | MIC [4, 19]: > 128 µg/mL; MIC [8, 24]: 32 µg/mL (≈ 73.4 µM); MIC [10, 25]: 64 µg/mL (≈ 147 µM); MIC [15, 22]: 16 µg/mL (≈ 36.7 µM); MIC [16, 23]: 64 µg/mL (≈ 147 µM)
N[C@@H](C(=O)N[C@@H]1C(=O)N2C(C(=O)O)=C(Cl)CS[C@H]12)c1ccccc1 [cefaclor] |  |  |  |  |  |  |  |  |  |  |  |  |  |  |  |  |  |  |  |  | absorption from the gastrointestinal tract [18]: high absorption
Nc1nc(CC(=O)N[C@@H]2C(=O)N3C(C(=O)O)=C(Cl)CS[C@H]23)ns1 [Compound 1] | 8 | 32 | 16 | 4 | 4 | > 128 | 4 |  |  |  |  |  |  |  |  |  |  |  |  |  | Minimum Inhibitory Concentration [6]: 8 µg/mL; Minimum Inhibitory Concentration [7]: 64 µg/mL; Minimum Inhibitory Concentration [8, 20]: 128 µg/mL; Minimum Inhibitory Concentration [9]: 4 µg/mL; Minimum Inhibitory Concentration [10, 21]: > 128 µg/mL; Minimum Inhibitory Concentration [11]: 4 µg/mL; Minimum Inhibitory Concentration [12]: 16 µg/mL; Minimum Inhibitory Concentration [13]: 2 µg/mL; Minimum Inhibitory Concentration [14]: 1 µg/mL; Minimum Inhibitory Concentration [15, 22]: 128 µg/mL; Minimum Inhibitory Concentration [16, 23]: > 128 µg/mL
CC1=C(C(=O)O)N2C(=O)[C@@H](NC(=O)[C@H](N)C3=CCC=CC3)[C@H]2SC1 [cephradine] |  |  |  |  |  |  |  |  |  |  |  |  |  |  |  |  |  |  |  |  | absorption from the gastrointestinal tract [18]: high absorption
Cc1nc(CC(=O)N[C@@H]2C(=O)N3C(C(=O)O)=C(Cl)CS[C@H]23)cs1 [Compound 4, 7β-[2-(2-Methylthiazol-4-yl)acetamido]-3-chloro-3-cephem-4-carboxylic acid] |  |  |  |  |  |  |  | 16 (≈ 42.8 µM) | 32 (≈ 85.6 µM) | 16 (≈ 42.8 µM) | 1 (≈ 2.67 µM) | 2 (≈ 5.35 µM) | 2 (≈ 5.35 µM) | 8 (≈ 21.4 µM) | 128 (≈ 342 µM) | 1 (≈ 2.67 µM) | 2 (≈ 5.35 µM) | 8 (≈ 21.4 µM) | 1 (≈ 2.67 µM) | 0.25 (≈ 0.669 µM) | Oral Bioavailability % BA (AUC) [17]: 57%; Oral Bioavailability % BA (URINE) [17]: 66%; MIC ([4]; Klebsiella pneumoniae): > 128 µg/mL; MIC ([8]; Staphylococcus aureus, V41, read-out: Minimum Inhibitory Concentration): 128 µg/mL (≈ 342 µM); MIC ([10]; Staphylococcus aureus, X400, read-out: Minimum Inhibitory Concentration): > 128 µg/mL; MIC ([15]; Streptococcus): 128 µg/mL (≈ 342 µM); MIC ([16]; Streptococcus): > 128 µg/mL
O=C(Cn1cnnn1)N[C@@H]1C(=O)N2C(C(=O)O)=C(Cl)CS[C@H]12 [Compound 6] | 16 | 32 | 32 | 8 | 16 | > 128 | 32 |  |  |  |  |  |  |  |  |  |  |  |  |  | Minimum Inhibitory Concentration [6]: 32 µg/mL; Minimum Inhibitory Concentration [7]: 32 µg/mL; Minimum Inhibitory Concentration [8, 20]: 32 µg/mL; Minimum Inhibitory Concentration [9]: 2 µg/mL; Minimum Inhibitory Concentration [10, 21]: > 128 µg/mL; Minimum Inhibitory Concentration [11]: 4 µg/mL; Minimum Inhibitory Concentration [12]: 16 µg/mL; Minimum Inhibitory Concentration [13]: 0.5 µg/mL; Minimum Inhibitory Concentration [14]: 0.5 µg/mL; Minimum Inhibitory Concentration [15, 22]: 64 µg/mL; Minimum Inhibitory Concentration [16, 23]: 64 µg/mL
O=C(Cc1csc(Cl)n1)N[C@@H]1C(=O)N2C(C(=O)O)=C(Cl)CS[C@H]12 [Compound 3, 7β-[2-(2-Chlorothiazol-4-yl)acetamido]-3-chloro-3-cephem-4-carboxylic acid] |  |  |  |  |  |  |  | 16 (≈ 40.6 µM) | 32 (≈ 81.2 µM) | 16 (≈ 40.6 µM) | 2 (≈ 5.07 µM) | 2 (≈ 5.07 µM) | 4 (≈ 10.1 µM) | 8 (≈ 20.3 µM) | 64 (≈ 162 µM) | 1 (≈ 2.54 µM) | 2 (≈ 5.07 µM) | 8 (≈ 20.3 µM) | 0.5 (≈ 1.27 µM) | 0.25 (≈ 0.634 µM) | Oral Bioavailability % BA (AUC) [17]: 66%; Oral Bioavailability % BA (URINE) [17]: 56%; MIC [4, 19]: 128 µg/mL (≈ 325 µM); MIC [8, 24]: 64 µg/mL (≈ 162 µM); MIC [10, 25]: > 128 µg/mL; MIC [15, 22]: 64 µg/mL (≈ 162 µM); MIC [16, 23]: 128 µg/mL (≈ 325 µM)
